Measurements published in patent US7435837B2, “Dihydrobenzofuranyl alkanamine derivatives and methods for using same” (Wyeth, priority 2003, dated 2008).
Counter-ions that a name gives are not always drawn.

| Compound | melting point [°C] |
| --- | --- |
| NCC1Cc2cccc(C3CCCC3)c2O1 (single isomer, unassigned; (-)) (as salt: hydrobromid) [Example 9, (−)-(7-cyclopentyl-2,3-dihydro-1-benzofuran-2-yl)methylamine] | 208 to 211 |
| CC(C)(C)c1cc(Cl)cc2c1OC(CN)C2 (single isomer, unassigned; (-)) (as salt: hydrobromid) [Example 28, (−)-1-(7-tert-butyl-5-chloro-2,3-dihydro-1-benzofuran-2-yl)methanamine] | 219 to 222 |
| NCC1Cc2cccc(-c3ccsc3)c2O1 (single isomer, unassigned; (-)) (as salt: hydrobromid) [Example 46, (−)-1-(7-thien-3-yl-2,3-dihydro-1-benzofuran-2-yl)methanamine] | 234 to 235 |
| NCC1Cc2cccc(-c3cccc(Cl)c3)c2O1 (single isomer, unassigned; (-)) (as salt: hydrobromid) [Example 67, (−)-1-[7-(3-chlorophenyl)-2,3-dihydro-1-benzofuran-2-yl]methanamine] | 189 to 190 |
| NCC1Cc2cccc(-c3ccc(F)cc3)c2O1 (single isomer, unassigned; (-)) (as salt: hydrobromid) [Example 75, (−)-1-[7-(4-fluorophenyl)-2,3-dihydro-1-benzofuran-2-yl]methanamine] | 208 to 210 |
| NCC1Cc2cccc(-c3ccc(Cl)cc3)c2O1 (single isomer, unassigned; (-)) (as salt: hydrobromid) [Example 78, (−)-1-[7-(4-chlorophenyl)-2,3-dihydro-1-benzofuran-2-yl]methanamine] | 233 to 235 |
| COc1ccc(-c2cccc3c2OC(CN)C3)cc1 (single isomer, unassigned; (-)) (as salt: hydrobromid) [Example 81, (−)-1-[7-(4-methoxyphenyl)-2,3-dihydro-1-benzofuran-2-yl]methanamine] | 185 to 188 |
| NCC1Cc2cc(Cl)cc(-c3ccsc3)c2O1 (single isomer, unassigned; (-)) (as salt: hydrobromid) [Example 91, (−)-(5-chloro-7-thien-3-yl-2,3-dihydro-1-benzofuran-2-yl)methylamine] | 277 to 280 |
| CC(C)c1cccc2c1OC(CN)C2 (single isomer, unassigned; (-)) (as salt: hydrochloride) [Example 19, (−)-(7-isopropyl-2,3-dihydro-1-benzofuran-2-yl)methylamine] | 176 to 178 |
| CC(C)(C)c1cccc2c1OC(CN)C2 (single isomer, unassigned; (-)) (as salt: hydrochloride) [Example 25, (−)-1-(7-tert-butyl-2,3-dihydro-1-benzofuran-2-yl)methanamine] | 178 to 180 |
| NCC1Cc2cccc(-c3ccccc3)c2O1 (single isomer, unassigned; (-)) (as salt: hydrochloride) [Example 38, (−)-1-(7-phenyl-2,3-dihydro-1-benzofuran-2-yl)methanamine] | 220 to 222 |
| Cc1cccc(-c2cccc3c2OC(CN)C3)c1 (single isomer, unassigned; (-)) (as salt: hydrochloride) [Example 43, (−)-1-[7-(3-methylphenyl)-2,3-dihydro-1-benzofuran-2-yl]methanamine] | 194 to 196 |
| Cc1ccccc1-c1cccc2c1OC(CN)C2 (single isomer, unassigned; (-)) (as salt: hydrochloride) [Example 49, (−)-1-[7-(2-methylphenyl)-2,3-dihydro-1-benzofuran-2-yl]methanamine] | 208 to 209 |
| NCC1Cc2cccc(-c3ccccc3F)c2O1 (single isomer, unassigned; (-)) (as salt: hydrochloride) [Example 52, (−)-1-[7-(2-fluorophenyl)-2,3-dihydro-1-benzofuran-2-yl]methanamine] | 224 to 225 |
| NCC1Cc2cccc(-c3ccccc3C(F)(F)F)c2O1 (single isomer, unassigned; (-)) (as salt: hydrochloride) [Example 54, (−)-1-{7-[2-(trifluoromethyl)phenyl]-2,3-dihydro-1-benzofuran-2-yl}methanamine] | 109 to 111 |
| Cc1cccc(C)c1-c1cccc2c1OC(CN)C2 (single isomer, unassigned; (-)) (as salt: hydrochloride) [Example 57, (−)-1-[7-(2,6-dimethylphenyl)-2,3-dihydro-1-benzofuran-2-yl]methanamine] | 244 to 247 |

Next, values leading:

| melting point [°C] | Compound |
| --- | --- |
| 206 to 209 | NCC1Cc2cc(F)cc(-c3ccccc3Cl)c2O1 (single isomer, unassigned; (-)) (as salt: hydrochloride) [Example 102, (−)-1-[7-(2-chlorophenyl)-5-fluoro-2,3-dihydro-1-benzofuran-2-yl]methanamine] |
| 157 to 159 | COc1cc2c(c(C(C)(C)C)c1)OC(CN)C2 (single isomer, unassigned; (-)) (as salt: hydrochloride) [Example 115, (−)-1-(7-tert-butyl-5-methoxy-2,3-dihydro-1-benzofuran-2-yl)methanamine] |
| 203 to 206 | NCC1Cc2c(cccc2-c2ccccc2C(F)(F)F)O1 (single isomer, unassigned; (-)) (as salt: hydrochloride) [Example 123, (−)-1-{4-[2-(trifluoromethyl)phenyl]-2,3-dihydro-1-benzofuran-2-yl}methanamine] |
| 186 to 188 | NCC1Cc2cccc(-c3ccccc3Cl)c2O1 (single isomer, unassigned; (-)) (as salt: hydrochloride) [Example 129, (−)-1-[7-(2-chlorophenyl)-2,3-dihydro-1-benzofuran-2-yl]methanamine] |
| 184 to 186 | NCC1Cc2cccc(-c3cccc(C(F)(F)F)c3)c2O1 (single isomer, unassigned; (-)) (as salt: hydrochloride) [Example 135, (−)-1-{7-[3-(trifluoromethyl)phenyl]-2,3-dihydro-1-benzofuran-2-yl}methanamine] |
| 207 to 209 | NCC1Cc2cccc(-c3c(Cl)cccc3Cl)c2O1 (single isomer, unassigned; (-)) (as salt: hydrochloride) [Example 141, (−)-1-[7-(2,6-dichlorophenyl)-2,3-dihydro-1-benzofuran-2-yl]methanamine] |
| 166 to 168 | COc1ccc(-c2cccc3c2OC(CN)C3)c(OC)c1 (single isomer, unassigned; (-)) (as salt: hydrochloride) [Example 144, (−)-1-[7-(2,4-dimethoxyphenyl)-2,3-dihydro-1-benzofuran-2-yl]methanamine] |
| 203 to 206 | NCC1Cc2cccc(-c3ccc(Cl)cc3Cl)c2O1 (single isomer, unassigned; (-)) (as salt: hydrochloride) [Example 149, (−)-1-[7-(2,4-dichlorophenyl)-2,3-dihydro-1-benzofuran-2-yl]methanamine] |
| 183 to 188 | NCC1Cc2cc(F)cc(-c3ccccc3C(F)(F)F)c2O1 (single isomer, unassigned; (-)) (as salt: hydrochloride) [Example 151, (−)-1-{5-fluoro-7-[2-(trifluoromethyl)phenyl]-2,3-dihydro-1-benzofuran-2-yl}methanamine] |
| 195 to 197 | CNCC1Cc2cccc(-c3c(Cl)cccc3Cl)c2O1 (single isomer, unassigned; (-)) (as salt: hydrochloride) [Example 434, (−)-{[7-(2,6-dichlorophenyl)-2,3-dihydro-1-benzofuran-2-yl]methyl}methylamine] |
